{"source": "patent US20230125487A1", "about": "“COMPOSITION FOR TREATING OR PREVENTING INFLAMMATORY BOWEL DISEASE” (FUGENBIO CO., LTD., priority 2019, published 2023)", "key": {"TNFα": {"system": "TNFα", "test": "TNFα mRNA expression in LPS-stimulated RAW 264.7 macrophages (RT-PCR)", "assay_type": "cell-based", "settings": "0.1 μg/mL E. coli-derived LPS, 25 μM compound, FIGS. 1a to 1c", "experimental": "(§1) RAW 264.7 macrophages were treated with 0.1 μg/mL of E. coli-derived LPS and 25 μM of Compounds A1 to A6, B1 to B6, or C1 to C6, respectively. Then, the mRNA expression level of the inflammatory cytokine TNFα was observed through RT-PCR."}, "COX2": {"system": "COX2", "test": "COX2 mRNA expression in LPS-stimulated RAW 264.7 macrophages", "assay_type": "cell-based", "settings": "0.1 μg/mL E. coli-derived LPS, 25 μM compound, FIGS. 2a and 2b", "experimental": "as §1\n(§2) FIGS. 2a and 2b show the result of representing the mRNA expression level of COX2. FIGS. 3a and 3b show the result of representing the mRNA expression level of iNOS."}, "iNOS": {"system": "iNOS", "test": "iNOS mRNA expression in LPS-stimulated RAW 264.7 macrophages", "assay_type": "cell-based", "settings": "0.1 μg/mL E. coli-derived LPS, 25 μM compound, FIGS. 3a and 3b", "experimental": "as §1, §2"}, "IL-1α": {"system": "IL-1α", "test": "IL-1α mRNA expression in LPS-stimulated RAW 264.7 macrophages", "assay_type": "cell-based", "settings": "0.1 μg/mL E. coli-derived LPS, 25 μM compound, FIG. 4"}, "IL-1β": {"system": "IL-1β", "test": "IL-1β mRNA expression in LPS-stimulated RAW 264.7 macrophages", "assay_type": "cell-based", "settings": "0.1 μg/mL E. coli-derived LPS, 25 μM compound, FIG. 5"}, "MCP1": {"system": "MCP1", "test": "MCP1 mRNA expression in LPS-stimulated RAW 264.7 macrophages", "assay_type": "cell-based", "settings": "0.1 μg/mL E. coli-derived LPS, 25 μM compound, FIG. 6"}, "nitric oxide (NO)": {"system": "nitric oxide (NO)", "test": "NO level in LPS-stimulated RAW 264.7 macrophages", "assay_type": "cell-based", "settings": "0.1 μg/mL E. coli-derived LPS, 25 μM compound, FIGS. 7a and 7b", "experimental": "as §1\nNitric oxide (NO), which is increased by LPS stimulation in RAW 264.7 macrophages, is one of the causes of inflammatory bowel disease along with inflammatory cytokines. Therefore, in Experimental Example 3, it was confirmed in the same manner as in Experimental Example 1 whether NO produced by LPS stimulation could be reduced by the compound according to the present invention.\nFIGS. 7a and 7b show the results of observing NO concentration (μM)."}, "[1]": {"system": "free radicals and NO formation", "settings": "disclosed in Cheng et al., Biochemical Pharmacology, 2001, Vol. 61, 939-946; cited from earlier work"}}, "data": [{"smiles": "CC(C)=CCc1cc(C(=O)/C=C/c2ccc(O)c(O)c2)c(O)cc1O", "note": "[Compound A1, broussochalcone A]", "values": [{"measurement": "increase in the mRNA expression level of TNFα induced by LPS stimulation", "setting": "TNFα", "result": "suppressed"}, {"measurement": "mRNA expression level of COX2", "setting": "COX2", "result": "suppressed"}, {"measurement": "mRNA expression level of iNOS", "setting": "iNOS", "result": "suppressed"}, {"measurement": "mRNA expression level of IL-1α", "setting": "IL-1α", "result": "suppressed"}, {"measurement": "mRNA expression level of IL-1β", "setting": "IL-1β", "result": "suppressed"}, {"measurement": "mRNA expression level of MCP1", "setting": "MCP1", "result": "suppressed"}, {"measurement": "NO level increased by LPS stimulation", "setting": "nitric oxide (NO)", "result": "suppressed"}, {"measurement": "excessive free radicals and NO formation", "setting": "[1]", "result": "inhibits"}]}]}
